Reference: US10266568B2, “Cyclic citrullinated peptide, rheumatoid arthritis diagnosis composition including the same, rheumatoid arthritis diagnosis method using the peptide or the composition, and method of screening diagnostic marker for rheumatoid arthritis” (KOREA INSTITUTE OF SCIENCE AND TECHNOLOGY, priority 2015, dated 2019)
Positions of bridges follow the written chain, without caps; N, C: chain ends. Non-standard residues stand in square brackets, D forms with d. No end group written: not given here. Cit = NC(=O)NCCC[C@H](N)C(=O)O; Ahx = NCCCCCC(=O)O

Tested on: autoimmune antibodies (anti-CCP antibody) in serum samples
Assay: Sandwich ELISA of patient serum samples on peptide-coated microplates (absorbance at 450 nm)
Format: binding, human
Conditions: diluted 200 times; for Average (absorbance) Normal: normal control group serum samples (25 subjects); for Average (absorbance) SLE: SLE patient serum samples (25 subjects); for Average (absorbance) OA: OA patient serum samples (15 subjects); for Average (absorbance) RA: RA patient serum samples (30 subjects), peptide coated at about 10 μg/ml
Protocol: Sandwich enzyme linked immunosorbent assay (ELISA) using the peptides of Table 1 were performed on the samples from 4 test groups. Serum samples of RA patients (30 subjects), OA patients (15 subjects), SLE patients (25 subjects), and control group samples (25 normal subjects) were prepared.
Each of the prepared peptides of Table 1 was diluted with PBS to about 10 μg/ml, added by about 100 μl to a microplate, and then coated at about 4° C. overnight, followed by adding about 200 μl of BSA solution (10 mg/mL) to each well of the peptide coated microplate to block at room temperature for about 1 hour, and washing the microplate with a PBS including about 0.1% of Tween-20 three times to use the microplate it in this assay. The patient samples and normal control group sample were diluted by 200 times and added triplet by about 100 μl to the wells of the peptide-coated microplate. After being cultured at room temperature for about 1 hour, the resulting microplate was washed three times in the same manner as the above-described washing. To detect autoimmune antibodies in the samples, 100 μl of an anti-human IgG antibody solution ([…]) was added to each cell of the microplate and incubated at room temperature for about 1 hour, followed by washing three times in the same manner as the above-described washing. After 100 μl of a TMB substrate solution was added thereto and reacted at room temperature for about 30 minutes, finally 100 μl of a 2M sulfuric acid solution was added as a stop solution to terminate the reaction, followed by absorbance measurement at a wavelength of about 450 nm using a microplate reader.
Autoimmune antibody levels in the blood samples of normal patients and various types of arthritis patients were analyzed by enzyme linked immunosorbent assay (ELISA) using the peptides of SEQ ID NOS.
Autoimmune antibody levels in the blood samples of normal patients and various arthritis patients were analyzed by ELISA using the peptides of SEQ ID NOS.

In the case of “CCP10P: HCHQESTXGPSRGCG; CCP with 10th amino acid arginine substituted by proline (HCHQEST[Cit]GPSRGCG; disulfide 2-14)”, the “Average (absorbance) Normal” value is reported as 0.0994.

“CCP11A: HCHQESTXGRARGCG; CCP with 11th amino acid serine substituted by alanine (HCHQEST[Cit]GRARGCG; disulfide 2-14)” was tested, and the “Average (absorbance) SLE” value was 0.3321 and the “Average (absorbance) Normal” value was 0.1125.

For “CCPPAP: HCHQESTXGPAPGCG; CCP with 10th, 11th, 12th amino acids substituted by proline, alanine, proline (HCHQEST[Cit]GPAPGCG; disulfide 2-14)”, the “Average (absorbance) OA” value was 0.2591, the “Average (absorbance) SLE” value was 0.3287 and the “Average (absorbance) Normal” value was 0.1140.

“HSH15: HSHQESTXGRSRGSG; CCP with disulfide bond-forming cysteine substituted with serine, X citrulline (HSHQEST[Cit]GRSRGSG)” was tested, and the “Average (absorbance) OA” value was 0.2277, the “Average (absorbance) RA” value was 0.1942 and the “Average (absorbance) SLE” value was 0.2704. The “Average (absorbance) Normal” value was 0.1067.

For “ZZH19: ZZHSHQESTXGRSRGSGZZ; aminocaproic acid (Z) added to N- and C-terminals of HSH15 ([Ahx][Ahx]HSHQEST[Cit]GRSRGSG[Ahx][Ahx])”, the “Average (absorbance) Normal” value was 0.1609.

In the case of “CCP: cyclic citrullinated peptide HCHQESTXGRSRGCG, X citrulline (HCHQEST[Cit]GRSRGCG; disulfide 2-14) [reference compound]”, the “Average (absorbance) OA” value is reported as 0.2314, the “Average (absorbance) RA” value is reported as 0.2522 and the “Average (absorbance) SLE” value is reported as 0.2347. The “Average (absorbance) Normal” value was 0.0874.

In the case of “CCP12P: HCHQESTXGRSPGCG; CCP with 12th amino acid substituted by proline (HCHQEST[Cit]GRSPGCG; disulfide 2-14)”, the “Average (absorbance) OA” value is reported as 0.2847, the “Average (absorbance) SLE” value is reported as 0.3619 and the “Average (absorbance) Normal” value is reported as 0.1250.

In the case of “HSH17: HSHQESTXGRSRGSGZZ; aminocaproic acid (Z) added to C-terminal of HSH15 (HSHQEST[Cit]GRSRGSG[Ahx][Ahx])”, the “Average (absorbance) Normal” value is reported as 0.1412.

“RF: rheumatoid factor peptide EGLHNHY (listed as Homo sapiens) [reference compound]” was tested, and the “Average (absorbance) OA” value was 0.2791, the “Average (absorbance) RA” value was 0.2534 and the “Average (absorbance) SLE” value was 0.3417. For the same substance, the “Average (absorbance) Normal” value was 0.1484.

“ZZH17: ZZHSHQESTXGRSRGSG; aminocaproic acid (Z) added to N-terminal of HSH15 ([Ahx][Ahx]HSHQEST[Cit]GRSRGSG)” was tested, and the “Average (absorbance) SLE” value was 0.2738 and the “Average (absorbance) Normal” value was 0.1102.
